# According to patent US9155759B2, “Heterochain aliphatic poly-N-oxide copolymers and vaccinating agents and drugs based thereon” (priority 2010, dated 2015):
# Marks after values point to notes of the source that are not given here.
# Columns and labels:
# [1] = Antidotal properties at acute CuSo4 poisoning; format: in vivo
# Procedure: The investigation was done in vivo at an acute CuSo4 poisoning. The preparations are administered to 7 groups of animals of which a normal saline solution is administered to the animals of the first group, CuSo4 alone in the doses fatal for animals (mg/kg): 12.5; 25.0; and 50.0 to the animals of groups 2÷4, and the similar CuSo4 doses in combination with the similar doses of CP—NO-3-1 are administered to the animals of groups 5÷7.
# The results of investigations presented in table 4 testify to a pronounced antidotal effect of CP—NO.
# [2] = test system: erythrocytes; test: Quartz (SiO2) erythrocyte hemolysis model; format: cell-based, Human; conditions: for Protection from hemolysis / Hemolysis: SiO2 3 mg; for Hemolysis: 1 hour, 37° C.
# Procedure: The investigation was done on a model of quartz (SiO2) erythrocyte hemolysis using the international standard of quartz dust DQ-12 having a dispersion degree of less than 3 μm according to the A. David method (1976). Human blood was taken with heparin, erythrocytes were thrice washed in a 10-fold volume of a water-white Henx solution followed by centrifuging at 3000 rpm for 10 min. An erythrocyte suspension was resuspended to a 4% concentration ([…]). All investigations were done in 3÷5 parallel assays. The samples of SiO2 and erythrocytes were taken under continuous agitation on a magnetic agitator.
# 1 ml of a 4% erythrocyte suspension was mixed with 1 ml of the investigated preparation adding 1 ml of 0.3% (3 mg/ml) of a SiO2 suspension and incubated for 1 hour at a temperature of 37° C. carefully shaking the samples every 5 minutes. After incubation all samples were added with 7 ml of a buffer, it was centrifuged and the supernatant was photometered on SF-26 at 540 nm. The results of hemolysis were expressed in percents taking as 100% the content of hemoglobin in the samples of 1 ml of a 4% erythrocyte suspension with 9 ml of distilled water. The protective effect of the investigated preparations was calculated according to the formula and expressed in percents: […]
# E540 K SiO2 is extinction of the control samples—a “water-silicon-erythrocytes” test tube.
# A property of CP—NO to protect erythrocytes from hemolysis was compared to high molecular plasma-substituting solutions of polyvinylpyrrolidone (hemodez), dextran (polyglucin) and albumin. As a buffer, a water-white Henx solution was used.
compound,measurement,setting,value
O=S(=O)([O-])[O-].[Cu+2] [CuSO4],% of animal death at days 1-2,[1]; CuSO4 12.5 mg/kg alone,100%
same,Animal survivability at day 30,[1]; CuSO4 12.5 mg/kg alone,0%
same,% of animal death at days 1-2,[1]; CuSO4 25.0 mg/kg alone,100%
same,Animal survivability at day 30,[1]; CuSO4 25.0 mg/kg alone,0%
same,% of animal death at days 1-2,[1]; CuSO4 50.0 mg/kg alone,100%
same,Animal survivability at day 30,[1]; CuSO4 50.0 mg/kg alone,0%
Albumin,protective properties against hemolysis (in words),[2]; comparison detoxicants,a pronounced effect is achieved only in high doses
same,Protection from hemolysis,[2]; dose 100 μg/ml,18.0%
same,Hemolysis,[2]; dose 100 μg/ml,82.0%
same,Protection from hemolysis,[2]; dose 1000 μg/ml,86.5* %
same,Hemolysis,[2]; dose 1000 μg/ml,13.5* %
